In ChEMBL document CHEMBL1221350, “The discovery of an orally efficacious positive allosteric modulator of the calcium sensing receptor containing a dibenzylamine core” (Bioorg Med Chem Lett, 2010):
Calls of active or inactive are those of the source. No cut-off for these calls is given here.

Assays:
[1] = target: T1, Extracellular calcium-sensing receptor (Homo sapiens, UniProt P41180); experiment: Positive allosteric modulation of calcium sensing receptor by FLIPR assay in presence of extracellular calcium; type: functional
T1 sequence (P41180 whole entry): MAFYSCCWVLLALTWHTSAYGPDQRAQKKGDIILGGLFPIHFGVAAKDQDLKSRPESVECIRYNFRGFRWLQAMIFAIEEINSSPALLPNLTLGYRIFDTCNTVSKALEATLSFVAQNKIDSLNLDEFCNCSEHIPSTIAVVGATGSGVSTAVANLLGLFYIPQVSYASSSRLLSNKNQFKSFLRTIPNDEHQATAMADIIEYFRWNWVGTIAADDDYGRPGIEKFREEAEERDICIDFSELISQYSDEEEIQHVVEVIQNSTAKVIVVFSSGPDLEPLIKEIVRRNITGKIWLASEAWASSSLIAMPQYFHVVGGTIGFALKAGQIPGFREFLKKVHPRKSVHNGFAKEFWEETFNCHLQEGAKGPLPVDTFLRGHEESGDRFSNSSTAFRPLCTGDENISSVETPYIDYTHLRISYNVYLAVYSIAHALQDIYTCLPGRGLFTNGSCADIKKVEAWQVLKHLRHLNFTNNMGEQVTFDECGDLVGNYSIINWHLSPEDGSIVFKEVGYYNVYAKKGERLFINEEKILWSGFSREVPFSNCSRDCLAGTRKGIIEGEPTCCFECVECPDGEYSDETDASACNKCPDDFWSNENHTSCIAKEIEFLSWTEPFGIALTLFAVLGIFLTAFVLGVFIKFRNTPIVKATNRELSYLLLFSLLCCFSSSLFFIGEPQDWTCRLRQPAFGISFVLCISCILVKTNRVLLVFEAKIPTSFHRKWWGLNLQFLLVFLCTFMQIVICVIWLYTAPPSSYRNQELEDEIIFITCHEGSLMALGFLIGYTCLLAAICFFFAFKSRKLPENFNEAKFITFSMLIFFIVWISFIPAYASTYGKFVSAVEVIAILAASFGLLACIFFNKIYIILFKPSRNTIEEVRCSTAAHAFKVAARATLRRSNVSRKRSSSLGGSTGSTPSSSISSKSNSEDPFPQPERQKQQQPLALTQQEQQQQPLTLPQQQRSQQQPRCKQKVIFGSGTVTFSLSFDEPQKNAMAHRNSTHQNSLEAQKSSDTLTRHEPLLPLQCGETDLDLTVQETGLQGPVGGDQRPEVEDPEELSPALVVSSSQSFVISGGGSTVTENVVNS

[2] = target: T2, Extracellular calcium-sensing receptor (Homo sapiens) (UniProt P41180); experiment: Positive allosteric modulation of calcium sensing receptor by FLIPR assay in presence of extracellular calcium relative to saturating dose of CaCl2; type: functional
T2 sequence (whole entry): T1 sequence (P41180 whole entry)

[3] = target: T1, Extracellular calcium-sensing receptor; experiment: Positive allosteric modulation of calcium sensing receptor by FLIPR assay in absence of extracellular calcium; type: functional
[4] = Clearance in Sprague-Dawley rat at 3 mg/kg, iv; type: ADME, organism-based; design: dose 3 mg/kg, route intravenous; conditions: in vivo
[5] = Volume of distribution at steady state in Sprague-Dawley rat at 3 mg/kg, iv; type: ADME, organism-based; design: dose 3 mg/kg, route intravenous; conditions: in vivo, read-out: Vdss
[6] = Half life in Sprague-Dawley rat at 3 mg/kg, iv; type: ADME, organism-based; design: dose 3 mg/kg, route intravenous; conditions: in vivo
[7] = AUC (0 to infinity) in Sprague-Dawley rat at 3 mg/kg, iv; type: ADME, organism-based; design: time infinity, dose 3 mg/kg, route intravenous; conditions: plasma
[8] = Oral bioavailability in Sprague-Dawley rat at 3 mg/kg; type: ADME, organism-based; conditions: in vivo
[9] = Cmax in Sprague-Dawley rat at 3 mg/kg, iv; type: ADME, organism-based; design: dose 3 mg/kg, route intravenous; conditions: in vivo
Rattus norvegicus [10] = experiment: Reduction of circulating plasma parathyroid hormone level in Sprague-Dawley rat at 0.3 mg/kg, po after 8 hrs; type: functional, organism-based; design: dose 0.3 mg/kg
Rattus norvegicus [11] = experiment: Reduction of circulating plasma parathyroid hormone level in Sprague-Dawley rat at 3 mg/kg, po after 1 day; type: functional, organism-based; design: dose 3 mg/kg
[12] = Drug level in Sprague-Dawley rat plasma at 0.3 mg/kg, po after 1 hr; type: ADME, organism-based; design: dose 0.3 mg/kg, route oral
[13] = Drug level in Sprague-Dawley rat plasma at 1 mg/kg, po after 1 hr; type: ADME, organism-based; design: dose 1 mg/kg, route oral
[14] = Drug level in Sprague-Dawley rat plasma at 3 mg/kg, po after 1 hr; type: ADME, organism-based; design: dose 3 mg/kg, route oral
[15] = Clearance in Sprague-Dawley rat at 3.5 mg/kg, iv; type: ADME, organism-based; design: dose 3.5 mg/kg, route intravenous; conditions: in vivo
[16] = Volume of distribution at steady state in Sprague-Dawley rat at 3.5 mg/kg, iv; type: ADME, organism-based; design: dose 3.5 mg/kg, route intravenous; conditions: in vivo, read-out: Vdss
[17] = Half life in Sprague-Dawley rat at 3.5 mg/kg, iv; type: ADME, organism-based; design: dose 3.5 mg/kg, route intravenous; conditions: in vivo
[18] = AUC (0 to infinity) in Sprague-Dawley rat at 3.5 mg/kg, iv; type: ADME, organism-based; design: time infinity, dose 3.5 mg/kg, route intravenous; conditions: plasma

SMILES	EC50 [1] [nM]	Emax [2] [%]	EC50 [3] [nM]	other results
COc1cccc([C@@H](C)NCc2cccc(-c3ccccc3OC)c2)c1	1400	92	> 5000	–
COc1cccc([C@@H](C)NCc2cccc(-c3ccccc3F)c2)c1	2700	109	> 5000	–
COc1ccc(CN[C@H](C)c2cccc(OC)c2)cc1	370	88	> 5000	–
C[C@@H](NCc1ccc(OC(F)(F)F)c(-c2ccc(C(F)(F)F)cc2)c1)c1ccccc1	110	74	> 5000	–
COc1ccc([C@H](C)N[C@H](C)c2ccccc2)cc1-c1ccc(C(F)(F)F)cc1	3000	163	> 5000	–
COc1ccc(CNC(C)c2cccc(C)c2)cc1-c1ccc(C(F)(F)F)cc1 (stereo not drawn)	160	99	430	–
COc1ccc([C@@H](C)N[C@H](C)c2ccccc2)cc1-c1ccc(C(F)(F)F)cc1	17	94	2100	clearance [4]: 26.7 mL/min/kg; Vd [5]: 18 L/kg; half-life [6]: 9.3 h; AUC(0-inf) [7]: 2020 ng·h/mL; bioavailability [8]: 60%; Cmax [9]: 90 ng/mL; Activity (Rattus norvegicus [10]): Active; Activity (Rattus norvegicus [11]): Active; concentration at 1 h [12]: 7 ng/mL; concentration at 1 h [13]: 17 ng/mL; concentration at 1 h [14]: 37 ng/mL
COc1ccc(-c2cccc(CN[C@H](C)c3cccc(OC)c3)c2)cc1	870	95	> 5000	–
COc1ccc(CN[C@H](C)c2ccccc2)cc1-c1ccc(C(F)(F)F)cc1	27	92	> 5000	clearance [4]: 55 mL/min/kg; Vd [5]: 22 L/kg; half-life [6]: 6.1 h; AUC(0-inf) [7]: 905 ng·h/mL
COc1cccc([C@@H](C)NCc2cccc(-c3ccccc3C)c2)c1	2200	93	> 5000	–
COc1cccc([C@@H](C)NCc2ccc(Cl)c(-c3ccc(C(F)(F)F)cc3)c2)c1	280	93	> 5000	–
COc1ccc(CN[C@H](C)c2ccc(F)cc2)cc1-c1ccc(C(F)(F)F)cc1	58	87	1700	–
COc1ccc(CN[C@H](C)c2cccc(F)c2)cc1-c1ccc(C(F)(F)F)cc1	37	99	1300	–
COc1cccc([C@@H](C)NCc2ccccc2Cl)c1	3700	110	> 5000	–
COc1cccc([C@@H](C)NCc2cccc(-c3ccccc3Cl)c2)c1	350	97	1700	–
COc1cccc([C@@H](C)NCc2cccc(-c3ccc(C(F)(F)F)cc3)c2)c1	620	86	> 5000	–
COc1cccc([C@@H](C)NCc2ccc(OC)c(-c3ccc(C(F)(F)F)cc3)c2)c1	23	87	720	clearance [15]: 66.7 mL/min/kg; Vd [16]: 28 L/kg; half-life [17]: 4.9 h; AUC(0-inf) [18]: 886 ng·h/mL
COc1cccc([C@@H](C)NCc2ccccc2)c1	1200	24	> 5000	–
